Experimental data published in paper PMC9180621, “Preparation of Novel Pyrazolo[4,3-e]tetrazolo[1,5-b][1,2,4]triazine Sulfonamides and Their Experimental and Computational Biological Studies” (International Journal of Molecular Sciences, 2022).

How the values were obtained:
[1] = system: BxPC-3 cells; experiment: MTT assay, cell viability; format: cell-based; conditions: Homo sapiens, BxPC-3, 72 h incubation, ± SD
Method: (§1) A statistical program (Graphpad Prism 7) was used to analyze obtained data (MTT test). The dose–response analysis was performed to estimate the inhibitory concentration (IC50) of the tested compounds. The IC50 value is defined as a concentration of the tested compound that leads to a reduction in cell pool viability by 50% compared to the negative control (accepted as 100%). % cell viability=Absorbance value of treated cells−Absorbance value of blank/Absorbance value of untreated cells−Absorbance value of blank×100%
(§2) To estimate cell viability following 72 h incubation with the tested MM-compounds (MM134, MM136, MM137, and MM139), the MTT test was used according to the PN-EN ISO 10993-5. It is a quantitative method based on the tetrazolium yellow dye MTT [3(4,5-dimethyl-2-thiazolyl)-2,5-diphenyl-2H-tetrazolium bromide], which is converted by living cells to a purple product, formazan, the concentration of which was measured colorimetrically. The MTT assay was performed according to the procedure described by Mosmann with modifications. At a density of approximately 8 × 10^3 cells per 100 µL/well, 96-well plates were seeded. Following the given incubation period in controlled conditions (37 °C; 5% CO2), cells were exposed to different concentrations of tested compounds in DMSO (range 0.05–3 µM) in a volume of 100 µL medium per well. Final solvent concentration of DMSO was < 0.5% v/v. The experimental design included vehicle controls and blanks (wells without cells).
(§3) After 72 h of incubation of cells with tested MM-compounds, 20 µL of MTT tetrazolium salt (5 mg/mL in PBS) was added to each well, and plates were incubated once again in a humidified atmosphere for 3 h (37 °C; 5% CO2). Following the incubation time, the solutions were removed and 100 µL of DMSO was added to dissolve the formazan complexes. Subsequently, a spectrophotometer (microplate reader Power Wave XS BioTek Instruments, Inc., Winooski, VT, USA) reading was performed at 570 nm. The experiments were performed in duplicates.

[2] = system: HCT-116 cells; experiment: MTT assay, cell viability; format: cell-based; conditions: Homo sapiens, HCT-116, 72 h incubation, ± SD
Method: as §1, §2, §3

[3] = system: L929 cells; experiment: MTT assay, cell viability; format: cell-based; conditions: L929 normal mouse fibroblasts, 72 h incubation, ± SD
Method: as §1, §2, §3

[4] = system: WI-38 cells; experiment: MTT assay, cell viability; format: cell-based; conditions: WI-38 normal human fibroblasts, 72 h incubation, ± SD
Method: as §1, §2, §3

[5] = system: PC-3 cells; experiment: MTT assay, cell viability; format: cell-based, human; conditions: Homo sapiens; PC-3, 72 h incubation, MTT, ± SD
Method: as §1, §2, §3

[6] = system: BxPC-3 cells; experiment: Annexin V-FITC/propidium iodide flow cytometry, apoptosis; format: cell-based, human; conditions: IC50 concentration, Annexin V-FITC, ± SD
Method: Data are presented as mean percentage of apoptotic cells (early and late apoptotic) ± SD values. The differences between the experimental samples and vehicle control were evaluated by the ANOVA test followed by Tukey’s test (p < 0.05). Experiments were performed in triplicate. For flow cytometry analysis with Annexin V-FITC staining, the approximate number of analyzed cells was (N = 1 × 10^4), contrasting with the dual acridine orange/ethidium bromide (AO/EB) fluorescent staining (N = 200).
The Annexin V-FITC Apoptosis Detection Kit was used to estimate the apoptosis induction following 24 and 48 h incubation with the tested MM-compounds. During apoptosis, phosphatidylserine is transformed from the inner cell membrane to the cell surface, which can be detected by the annexin-FITC complex. The addition of propidium iodide to the reaction mixture allows the assessment of cell membrane integrity. Using flow cytometry analysis, four subpopulations of cells can be distinguished: alive (non-stained), necrotic (propidium iodide stained), early apoptotic (annexin V stained cells), or late-apoptotic cells (propidium iodide and annexin V stained). BxPC-3 and PC-3 cells were seeded at appropriate density on a 6-well plate (Table 9).
The experimental design included vehicle control (final solvent concentration was < 0.5% v/v DMSO), and cells treated with 2 µM SN-38 (active metabolite of irinotecan) used as a positive compensation control. Cells were left for incubation for another 24 or 48 h (37 °C; 5% CO2). After exposure, cells were trypsinized and transferred to cytometric tubes, left for 40 min, and centrifuged at 1400 rpm for 10 min at 4 °C. Afterward, the supernatant was removed, and the precipitate was diluted in 1 mL of PBS. The rest of the procedure was performed according to the manufacturer’s instructions. The results were obtained from three independent experiments.

[7] = system: BxPC-3 cells; experiment: Dual acridine orange/ethidium bromide (AO/EB) fluorescent staining, apoptosis; format: cell-based, human; conditions: BxPC-3, IC50 concentration, 24 h incubation
Method: (§4) Data are presented as mean percentage of apoptotic cells (early and late apoptotic) ± SD values. The differences between the experimental samples and vehicle control were evaluated by the ANOVA test followed by Tukey’s test (p < 0.05). Experiments were performed in triplicate. For flow cytometry analysis with Annexin V-FITC staining, the approximate number of analyzed cells was (N = 1 × 10^4), contrasting with the dual acridine orange/ethidium bromide (AO/EB) fluorescent staining (N = 200). Acridine orange/ethidium bromide (AO/EB) staining is used to detect nuclear alterations and the development of apoptotic bodies, which are both indicative of apoptosis. Acridine orange penetrates into living cells, emitting green fluorescence after intercalation into DNA. The second dye, ethidium bromide, emits red fluorescence in cells with an altered cell membrane. The cells are divided into three categories as follows: living cells (green nucleus with red orange cytoplasm); apoptotic (green irregularly nuclei with chromatin condensation or fragmentation); and necrotic cells (uniformly orange-stained cell nuclei). Programmed cell death is measured by counting the number of cells that undergo apoptosis under a fluorescent microscope. BxPC-3 and PC-3 cells were seeded at an appropriate density on 12-well plates (Table 9). […] Following the incubation period, cells were incubated with fluorochromes (AO/EB: 100 µM; 1:1, v/v) for 5 min at 37 °C in the dark. Viable, apoptotic, or necrotic cells were distinguished using this method based on differential uptake of fluorescent DNA-binding dyes (AO/EB) with the structural aspect of chromatin condensation in the stained nucleus. Cells were analyzed using a fluorescence microscope (Olympus BX60 F5 Olympus Optical Co., Ltd., Nagano, Japan) at 360 nm. The results were obtained from three independent experiments.

[8] = system: PC-3 cells; experiment: as above; format: cell-based, human; conditions: PC-3, 48 h incubation, 2xIC50 concentration, AO/EB, ± SD; control 1.5 ± 0.7%
Method: as §4

[9] = system: BxPC-3 cells; experiment: MitoTracker Red, mitochondria membrane potential; format: cell-based, human
Method: (§5) The fitness of the mitochondria and changes in MMP were assessed using MitoTracker Red. Data for experimental groups were presented as mean percentage of control group fluorescence intensity ± SD value (Figure 11, Table 2). Mitotracker Red is deposited in the mitochondrial matrix in response to changes in the inner transmembrane potential of the mitochondria. The intensity of fluorescence reflects the fitness of the mitochondria and alters with changes in MMP [91]. BxPC-3 and PC-3 cells were seeded at appropriate density on a 96-well plates (Table 9). […] After appropriate incubation time, cells were incubated with MitoTracker Red (0.1 µM/200 µL PBS/well) for 40 min. Afterward, MitoTracker Red solution was removed from the wells and PBS (200 µL/well) was added. Fluorescence was read at an […] of 581/644 nm using the SpectraMax® i3x Multi-Mode Detection Platform.

[10] = system: PC-3 cells; experiment: MitoTracker Red, mitochondria membrane potential; format: cell-based, human
Method: as §5

Question: How did the IC50 [1] turn out when Cc1nn(-c2ccc(S(=O)(=O)N3CCOCC3)cc2)c2nn3nnnc3nc12 [MM136] was run?
Answer: 250 ± 80 nM

Question: What about the IC50 [2] of the same compound?
Answer: 250 ± 70 nM

Question: And the IC50 [3]?
Answer: 220 ± 80 nM

Question: What about the IC50 [4] of the same compound?
Answer: 480 ± 90 nM

Question: What about the IC50 [5] of the same compound?
Answer: 130 ± 10 nM

Question: And the “mean percentage of apoptotic cells (early and late apoptotic)” value ([6]; BxPC-3, 24 h incubation, control 10.3 ± 2.09%)?
Answer: 41.7 ± 0.17%

Question: And the “mean percentage of apoptotic cells (early and late apoptotic)” value ([6]; BxPC-3, 48 h incubation, control 8.3 ± 1.13%)?
Answer: 56.33 ± 4.96%

Question: What about the “increase in apoptotic fraction” value [7] of the same compound?
Answer: did not induce a significant increase

Question: What about the “mean % of apoptotic cells” value [8] of the same compound?
Answer: 14.5 ± 0.7%

Question: And the “mean percentage of control group fluorescence intensity (MMP)” value (“mean percentage … (MMP)” for short) ([9]; BxPC-3, 24 h incubation, 0.5IC50, ± SD)?
Answer: 82.83 ± 13.02%

Question: And the “mean percentage … (MMP)” value ([9]; BxPC-3, 24 h incubation, 2xIC50, ± SD)?
Answer: 57.67 ± 5.56%

Question: And the “mean percentage … (MMP)” value ([9]; BxPC-3, 24 h incubation, IC50, ± SD)?
Answer: 65.68 ± 4.58%

Question: And the “mean percentage … (MMP)” value ([9]; BxPC-3, 48 h incubation, 0.5IC50, ± SD)?
Answer: 69.08 ± 4.40%

Question: And the “mean percentage … (MMP)” value ([9]; BxPC-3, 48 h incubation, 2xIC50, ± SD)?
Answer: 61.83 ± 0.46%

Question: What about the “mean percentage … (MMP)” value ([9]; BxPC-3, 48 h incubation, IC50, ± SD) of the same compound?
Answer: 62.37 ± 0.05%

Question: What about the “mean percentage … (MMP)” value ([10]; PC-3, 24 h incubation, 0.5IC50, ± SD) of the same compound?
Answer: 96.3 ± 5.74%

Question: And the “mean percentage … (MMP)” value ([10]; PC-3, 24 h incubation, 2xIC50, ± SD)?
Answer: 86.9 ± 7.22%

Question: And the “mean percentage … (MMP)” value ([10]; PC-3, 24 h incubation, IC50, ± SD)?
Answer: 92.78 ± 0.9%

Question: And the “mean percentage … (MMP)” value ([10]; PC-3, 48 h incubation, 0.5IC50, ± SD)?
Answer: 81.34 ± 0.4%

Question: What about the “mean percentage … (MMP)” value ([10]; PC-3, 48 h incubation, 2xIC50, ± SD) of the same compound?
Answer: 47.38 ± 2.74%

Question: And the “mean percentage … (MMP)” value ([10]; PC-3, 48 h incubation, IC50, ± SD)?
Answer: 61.24 ± 3.62%
